Test system: MCF-7 cells
Experiment: Cellular metabolomics study (LC-MS)
Type: cell-based, human
Settings: MCF-7, BoA2C (2 μM) 72 h, BoA2C and Control groups
Procedure: To eliminate excess medium, cells were washed twice with 1 ml of PBS solution. The wells were then filled with 2 ml of ACN: MeOH: H2O 50:30:20 (v/v) and placed in the freezer for 20 min. The extracts obtained in an Eppendorf tube after the cells were scraped and vortexed. The mixture was then centrifuged for 10 min at 10,000 rpm and 4°C, and the supernatant was collected and dried with an evaporator. 300 μl MeOH was used for reconstitution. 15 μL of the reconstituted extract was mixed with 15 μl H2O and […] ACN for the metabolomics analysis of the intracellular material. After centrifugation (10 min, 4°C, 11,800 g), the supernatant was transferred to an LC-MS vial for analysis.
An Acquity UPLC HSS T3 column (1.8 μm 100 × 2.1 mm) using an UltiMate 3000 high performance LC system coupled to Q Exactive MS was used for metabolic profiling ([Shu et al., 2020]). At a flow rate of 0.3 ml/min, mobile phase A (water containing 0.1% acid) and mobile phase B (methanol) were used. A was reduced from 80 % to 70% from 0 to 2 min, A was reduced to 55% from 2 to 5 min, A was reduced to 40% from 5 to 6.5 min, A was reduced to 35% from 6.5 to 12 min, A was last reduced to 0 from 12 to 18 min. The gradient of the mobile phase was as follows: The column oven temperature was set to 40°C, and the autosampler temperature was set to 4°C. The injection volume was 1 μl. MS used electron spray ionization to operate in both positive and negative ionization modes (ESI). To assess the stability and repeatability of the LC-MS-based metabolomics method, quality control (QC) samples were used. Each QC sample was made by combining five samples of the same volume (100 μL) in the order of analysis. To ensure the system method’s stable operation, all combined QC samples for running all QC samples made by every five samples before analysis. After five samples were tested during the analysis run, the combined QC samples of the five samples were taken.
Mass spectrometry data of metabolites in MCF-7 cells was used for metabolomics investigation after co-cultivation with BoA2C (2 μM) for 72 h. The effectiveness of the OPLS-DA model to distinguish between the BoA2C and Control groups was assessed using the success criterion of R^2 ≥ 0.7 and Q^2 ≥ 0.4 ([Martin-Blazquez et al., 2019]). […] VIP-plots were investigated using the OPLS-DA models to examine important factors that led to the differentiation of the metabolome between the BoA2C and Control groups. Variables having a VIP value greater than 1 were deemed significant contenders. Matching retention time and MS fragmentation patterns from the MetaboAnalyst (version 5.0) database verified the presence of distinct metabolites ([Pang et al., 2021]). These metabolites were further categorized based on their characteristics, including amino acids, amines, aliphatic acids and bile acids. All differential metabolites were loaded into MetaboAnalyst (version 5.0) for metabolic analysis to further explain the fundamental mechanisms of BoA2C’s cytotoxic impact on breast carcinoma cells. In accordance with the described guidelines, the Homo sapiens pathway library and Fisher’s exact test were used for route enrichment analysis, while relative-betweeness centrality was used for pathway topology analysis ([Pang et al., 2021]). The impacted metabolic pathways were defined as those with a pathway effect value more than 0.10 and a p value less than 0.05. […] Six of them (Figure 7B, Table 3) were primarily involved: 1) arginine and proline metabolism 2) linoleate metabolism 3) bile acid biosynthesis 4) de novo fatty acid biosynthesis 5) fatty acid activation, and (VI) fatty Acid Metabolism.

[1] = Arginine and Proline Metabolism
[2] = De novo fatty acid biosynthesis

SMILES: C=C(C)[C@@H]1CC[C@]2(C(=O)OCCOC(=O)c3cnc(C)cn3)CC[C@]3(C)[C@H](CC[C@@H]4[C@@]5(C)CCC(=O)C(C)(C)[C@@H]5CC[C@]43C)[C@@H]12 [BoA2C, (5-Methylpyrazin-2-acyloxy)-ethyl-3-oxolup-20(29)-en-28-oate]
- fold change of 4-Acetamidobutanoic acid (M4) [1]: 2.37
- fold change of 5′-Methylthioadenosine (M10) [1]: 28.55
- fold change of L-4-Hydroxyglutamate semialdehyde (M6) [1]: 1.99
- fold change of L-Arginine (M14) [1]: 1.90
- fold change of L-Glutamic acid (M18) [1]: 1.94
- fold change of L-Glutamine (M7) [1]: 2.33
- fold change of L-Methionine (M12) [1]: 3.63
- fold change of L-Proline (M5) [1]: 2.40
- fold change of 3,7-Dihydroxycoprostanic Acid (M21) (Bile acid biosynthesis): 1027.39
- fold change of 3a,7a-Dihydroxy-5b-cholestan-26-al (M13) (Bile acid biosynthesis): 241.46
- fold change of 3 alpha,7 alpha,26-Trihydroxy-5beta-cholestane (M3) (Bile acid biosynthesis): 362.98
- fold change of 7a,12a-Dihydroxy-cholestene-3-one (M16) (Bile acid biosynthesis): 17.04
- fold change of 7a-Hydroxy-5b-cholestan-3-one (M25) (Bile acid biosynthesis): 9.40
- fold change of 7a-Hydroxy-cholestene-3-one (M28) (Bile acid biosynthesis): 4.47
- fold change of 7alpha-Hydroxycholesterol (M17) (Bile acid biosynthesis): 92.35
- fold change of 27-Deoxy-5b-cyprinol (M24) (Bile acid biosynthesis): 2.03
- fold change of Cholesterol (M1) (Bile acid biosynthesis): 7.69
- fold change of Cholic acid (M2) (Bile acid biosynthesis): 2.55
- fold change of Lithocholic acid (M27) (Bile acid biosynthesis): 108.49
- fold change of Palmitic acid (M11) [2]: 23.17
- fold change of alpha-Linolenic acid (M26) [2]: 2.19
- fold change of 2-trans-dodecenoyl-CoA (M22) (Fatty Acid Metabolism): 1.93
- fold change of 3-Oxotetradecanoyl-CoA (M15) (Fatty Acid Metabolism): 1.77
- fold change of 13-HODE (M23) (Linoleate metabolism): 108.54
- fold change of 13-Hpode (M9) (Linoleate metabolism): 23.04
- fold change of Ascorbic Acid (M19) (Linoleate metabolism): 2.88
- fold change of Linoleic acid (M20) (Linoleate metabolism): 159.58
- fold change of LysoPC(P-18:0/0:0) (M8) (Linoleate metabolism): 3.29

Reference: paper PMC9486541, “Design, synthesis and cytotoxic evaluation of novel betulonic acid-diazine derivatives as potential antitumor agents” (Frontiers in Chemistry, 2022)
